The target in assay [1] is T1, wild type ELIC (Dickeya chrysanthemi, UniProt P0C7B7).
T1 construct: expressed in transfected cells; host or cells: Xenopus laevis oocytes (cRNA injection)
As to conditions: previously identified; cited from earlier work.

Assay [2] concerns the target T1, wild type ELIC. Kind of assay: Inhibition of GABA-elicited currents of wild-type ELIC in Xenopus oocytes. The format is cell-based, Erwinia chrysanthemii. The following applies: wild type ELIC; inhibition measured at the GABA EC50; read-out: IC50. The method, then:
(§1) Xenopus laevis oocyte-positive females were purchased from NASCO (Fort Atkinson, WI) and maintained according to standard methods. Harvested stage V and VI Xenopus oocytes were washed in four changes of Ca^2+-free ND96 [96 mM NaCl, 2 mM KCl, 1 mM MgCl2, and 5 mM HEPES (pH 7.5)], defolliculated in 1.5 mg mL^–1 collagenase type 1A for approximately 2 h, washed again in four changes of ND96, and stored in ND96 at 16 °C containing 2.5 mM sodium pyruvate, […] gentamycin, and 0.7 mM theophylline.
(§2) ELIC (GenBank accession number ADN00343.1) was kindly provided by C. Ulens. For expression in Xenopus oocytes, it was cloned into pGEMHE with the signal sequence of the human α7 nACh receptor. Site-directed mutagenesis was performed with the QuikChange mutagenesis kit (Stratagene, La Jolla, CA). cRNA was transcribed in vitro from the linearized pGEMHE cDNA template using the mMessage mMachine T7 transcription kit (Ambion, Austin, TX). Stage V and VI oocytes were injected with 20 ng of cRNA, and currents were recorded 1–3 days postinjection.
(§3) Using two-electrode voltage clamp, Xenopus oocytes were clamped at −60 mV using an OC-725 amplifier (Warner Instruments, Hamden, CT), Digidata 1322A, and the Strathclyde Electrophysiology Software Package (Department of Physiology and Pharmacology, University of Strathclyde, Glasgow, U.K.). Currents were recorded at 5 kHz and filtered at a frequency of 1 kHz. Microelectrodes were fabricated from borosilicate glass (GC120TF-10, Harvard Apparatus, Edenbridge, Kent, U.K.) using a one-stage horizontal pull (P-87, Sutter Instrument Co., Novato, CA) and filled with 3 M KCl. Pipette resistances ranged from 1.0 to 2.0 MΩ. Oocytes were perfused with ND96 at a constant rate of 12 mL min^–1 with complete solution exchange within 5 s. Drug application was accomplished via a simple gravity-fed system calibrated to run at the same rate. Inhibition by test compounds was measured at the GABA EC50 for each mutant.
Analysis and curve fitting were performed using Prism version 4.03 (GraphPad Software, San Diego, CA). Concentration–response data for each oocyte were normalized to the maximal current for that oocyte and the mean ± standard error of the mean (SEM) for a series of oocytes pooled and plotted against agonist or antagonist concentration and iteratively fit to the four-parameter logistic equation. Statistical analysis was performed using a Student’s t test.

In another assay the target is T2, T6′A ELIC (Dickeya chrysanthemi, UniProt P0C7B7, T236A).
T2 construct: expressed in transfected cells; host or cells: Xenopus laevis oocytes (cRNA injection)
T2 sequence (P0C7B7 whole entry T236A): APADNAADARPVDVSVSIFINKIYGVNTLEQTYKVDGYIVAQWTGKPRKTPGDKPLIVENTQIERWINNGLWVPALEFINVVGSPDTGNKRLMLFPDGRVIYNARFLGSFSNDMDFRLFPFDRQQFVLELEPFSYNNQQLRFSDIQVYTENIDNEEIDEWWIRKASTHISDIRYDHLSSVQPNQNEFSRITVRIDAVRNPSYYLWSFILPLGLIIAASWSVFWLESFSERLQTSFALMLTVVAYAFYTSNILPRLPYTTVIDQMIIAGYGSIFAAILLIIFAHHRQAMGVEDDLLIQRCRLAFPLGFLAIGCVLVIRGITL
The experiment in a line: GABA activation of T6′A ELIC, two-electrode voltage clamp in Xenopus oocytes. The format is cell-based, Erwinia chrysanthemii. As to conditions: T6′A ELIC; GABA concentration–response. For orientation: Two-electrode voltage clamp is typically applied to oocytes expressing channels or transporters.

The next assay concerns the target T3, F16′W ELIC (Dickeya chrysanthemi, UniProt P0C7B7, F246W).
T3 construct: expressed in transfected cells; host or cells: Xenopus laevis oocytes (cRNA injection)
The experiment in a line: GABA activation of F16′W ELIC, two-electrode voltage clamp in Xenopus oocytes. It counts as cell-based, Erwinia chrysanthemii. The following applies: F16′W ELIC; GABA concentration–response.

The target in a further assay is T4, F16′Y ELIC (Dickeya chrysanthemi, UniProt P0C7B7, F246Y).
T4 construct: expressed in transfected cells; host or cells: Xenopus laevis oocytes (cRNA injection)
T4 sequence (P0C7B7 whole entry F246Y): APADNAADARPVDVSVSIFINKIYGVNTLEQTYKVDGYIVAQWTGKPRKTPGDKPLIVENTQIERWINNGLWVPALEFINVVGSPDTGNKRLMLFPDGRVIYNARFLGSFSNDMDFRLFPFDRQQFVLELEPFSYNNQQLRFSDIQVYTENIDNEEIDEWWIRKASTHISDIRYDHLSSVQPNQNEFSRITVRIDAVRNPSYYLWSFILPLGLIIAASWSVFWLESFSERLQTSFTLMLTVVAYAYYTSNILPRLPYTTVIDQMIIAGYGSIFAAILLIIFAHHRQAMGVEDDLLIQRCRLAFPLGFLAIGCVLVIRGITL
The experiment in a line: GABA activation of F16′Y ELIC, two-electrode voltage clamp in Xenopus oocytes. It counts as cell-based, Erwinia chrysanthemii. The following applies: F16′Y ELIC; GABA concentration–response.

The target of a further assay is T5, F16′S/T6′S ELIC (Dickeya chrysanthemi, UniProt P0C7B7, F246S/T236S).
T5 construct: expressed in transfected cells; host or cells: Xenopus laevis oocytes (cRNA injection)
T5 sequence (P0C7B7 whole entry T236S/F246S): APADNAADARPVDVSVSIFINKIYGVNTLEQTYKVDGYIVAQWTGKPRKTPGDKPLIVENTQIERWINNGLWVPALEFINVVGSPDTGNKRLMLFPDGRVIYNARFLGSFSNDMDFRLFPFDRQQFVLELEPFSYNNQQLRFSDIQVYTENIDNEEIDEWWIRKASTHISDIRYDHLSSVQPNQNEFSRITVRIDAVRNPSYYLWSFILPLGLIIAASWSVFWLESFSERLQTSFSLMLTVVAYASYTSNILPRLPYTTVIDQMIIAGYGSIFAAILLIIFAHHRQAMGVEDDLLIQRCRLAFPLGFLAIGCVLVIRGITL
The experiment in a line: GABA activation of F16′S/T6′S ELIC, two-electrode voltage clamp in Xenopus oocytes. It counts as cell-based, Erwinia chrysanthemii. The following applies: F16′S/T6′S ELIC; GABA concentration–response.

Another assay has as its target T6, F16′S ELIC (Dickeya chrysanthemi, UniProt P0C7B7, F246S).
T6 construct: expressed in transfected cells; host or cells: Xenopus laevis oocytes (cRNA injection)
The experiment in a line: GABA activation of F16′S ELIC, two-electrode voltage clamp in Xenopus oocytes. The format is cell-based, Erwinia chrysanthemii. The following applies: F16′S ELIC; GABA concentration–response.

A further assay concerns the target T7, F16′L ELIC (Dickeya chrysanthemi, UniProt P0C7B7, F246L).
T7 construct: expressed in transfected cells; host or cells: Xenopus laevis oocytes (cRNA injection)
Kind of assay: GABA activation of F16′L ELIC, two-electrode voltage clamp in Xenopus oocytes. It counts as cell-based, Erwinia chrysanthemii. On the procedure: as §1
(§4) ELIC (GenBank accession number ADN00343.1) was kindly provided by C. Ulens. For expression in Xenopus oocytes, it was cloned into pGEMHE with the signal sequence of the human α7 nACh receptor. […] Stage V and VI oocytes were injected with 20 ng of cRNA, and currents were recorded 1–3 days postinjection.
(§5) Using two-electrode voltage clamp, Xenopus oocytes were clamped at −60 mV using an OC-725 amplifier (Warner Instruments, Hamden, CT), Digidata 1322A, and the Strathclyde Electrophysiology Software Package (Department of Physiology and Pharmacology, University of Strathclyde, Glasgow, U.K.). Currents were recorded at 5 kHz and filtered at a frequency of 1 kHz. […] Inhibition by test compounds was measured at the GABA EC50 for each mutant. […]

In a further assay the target is T8, F16′E ELIC (Dickeya chrysanthemi, UniProt P0C7B7, F246E).
T8 construct: expressed in transfected cells; host or cells: Xenopus laevis oocytes (cRNA injection)
T8 sequence (P0C7B7 whole entry F246E): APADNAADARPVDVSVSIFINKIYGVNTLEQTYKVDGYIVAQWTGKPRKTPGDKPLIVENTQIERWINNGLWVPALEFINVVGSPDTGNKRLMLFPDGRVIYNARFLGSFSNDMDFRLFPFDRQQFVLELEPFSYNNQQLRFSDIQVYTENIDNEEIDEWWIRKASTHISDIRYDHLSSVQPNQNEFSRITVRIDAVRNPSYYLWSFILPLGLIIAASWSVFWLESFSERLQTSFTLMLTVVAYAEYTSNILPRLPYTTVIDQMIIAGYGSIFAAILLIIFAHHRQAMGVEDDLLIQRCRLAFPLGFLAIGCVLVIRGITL
Kind of assay: GABA activation of F16′E ELIC, two-electrode voltage clamp in Xenopus oocytes. The format is cell-based, Erwinia chrysanthemii. On the procedure: as §1, §4, §5

The target in a further assay is T9, Q2′A ELIC (Dickeya chrysanthemi, UniProt P0C7B7, Q232A).
T9 construct: expressed in transfected cells; host or cells: Xenopus laevis oocytes (cRNA injection)
T9 sequence (P0C7B7 whole entry Q232A): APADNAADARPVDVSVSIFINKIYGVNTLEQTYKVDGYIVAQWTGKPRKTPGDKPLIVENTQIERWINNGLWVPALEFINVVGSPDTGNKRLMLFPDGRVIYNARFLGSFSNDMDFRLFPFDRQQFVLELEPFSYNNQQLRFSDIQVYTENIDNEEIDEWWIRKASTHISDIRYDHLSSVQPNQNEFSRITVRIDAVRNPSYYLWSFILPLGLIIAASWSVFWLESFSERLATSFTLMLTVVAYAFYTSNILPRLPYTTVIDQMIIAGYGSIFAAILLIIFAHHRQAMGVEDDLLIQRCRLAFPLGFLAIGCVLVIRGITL
Kind of assay: GABA activation of Q2′A ELIC, two-electrode voltage clamp in Xenopus oocytes. It counts as cell-based, Erwinia chrysanthemii. The following applies: Q2′A receptors. On the procedure:
as §1, §4, §5

The next assay has as its target T10, F16′Q ELIC (Dickeya chrysanthemi, UniProt P0C7B7, F246Q).
T10 construct: expressed in transfected cells; host or cells: Xenopus laevis oocytes (cRNA injection)
The experiment in a line: GABA activation of F16′Q ELIC, two-electrode voltage clamp in Xenopus oocytes. The format is cell-based, Erwinia chrysanthemii. The following applies: F16′Q ELIC; GABA concentration–response.

Another assay deals with T11, Q2′N ELIC (Dickeya chrysanthemi, UniProt P0C7B7, Q232N).
T11 construct: expressed in transfected cells; host or cells: Xenopus laevis oocytes (cRNA injection)
T11 sequence (P0C7B7 whole entry Q232N): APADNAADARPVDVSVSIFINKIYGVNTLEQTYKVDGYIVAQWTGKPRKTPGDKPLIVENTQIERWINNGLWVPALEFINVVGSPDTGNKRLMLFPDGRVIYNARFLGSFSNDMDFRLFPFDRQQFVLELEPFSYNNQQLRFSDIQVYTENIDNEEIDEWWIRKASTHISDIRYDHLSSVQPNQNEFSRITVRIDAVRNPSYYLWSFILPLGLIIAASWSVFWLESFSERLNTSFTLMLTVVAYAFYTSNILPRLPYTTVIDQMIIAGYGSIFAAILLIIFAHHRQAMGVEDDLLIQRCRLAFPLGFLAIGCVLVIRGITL
Kind of assay: GABA activation of Q2′N ELIC, two-electrode voltage clamp in Xenopus oocytes. As to conditions: Q2′N ELIC; GABA concentration–response. It counts as cell-based, Erwinia chrysanthemii.

The next assay concerns the target T12, T6′S ELIC (Dickeya chrysanthemi, UniProt P0C7B7, T236S).
T12 construct: expressed in transfected cells; host or cells: Xenopus laevis oocytes (cRNA injection)
Kind of assay: GABA activation of T6′S ELIC, two-electrode voltage clamp in Xenopus oocytes. The format is cell-based, Erwinia chrysanthemii. The following applies: T6′S ELIC; GABA concentration–response.

In another assay the target is T13, F16′T ELIC (Dickeya chrysanthemi, UniProt P0C7B7, F246T).
T13 construct: expressed in transfected cells; host or cells: Xenopus laevis oocytes (cRNA injection)
T13 sequence (P0C7B7 whole entry F246T): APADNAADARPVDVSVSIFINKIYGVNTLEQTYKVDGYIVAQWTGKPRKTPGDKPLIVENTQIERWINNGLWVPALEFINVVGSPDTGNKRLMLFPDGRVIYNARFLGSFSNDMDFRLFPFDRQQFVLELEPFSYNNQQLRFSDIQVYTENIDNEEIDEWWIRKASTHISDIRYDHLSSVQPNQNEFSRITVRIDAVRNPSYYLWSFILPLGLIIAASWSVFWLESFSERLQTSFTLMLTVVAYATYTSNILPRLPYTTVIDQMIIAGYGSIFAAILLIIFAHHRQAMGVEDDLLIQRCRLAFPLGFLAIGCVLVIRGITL
The experiment in a line: GABA activation of F16′T ELIC, two-electrode voltage clamp in Xenopus oocytes. The following applies: F16′T ELIC; GABA concentration–response. It counts as cell-based, Erwinia chrysanthemii.

The next assay deals with T14, F16′D ELIC (Dickeya chrysanthemi, UniProt P0C7B7, F246D).
T14 construct: expressed in transfected cells; host or cells: Xenopus laevis oocytes (cRNA injection)
T14 sequence (P0C7B7 whole entry F246D): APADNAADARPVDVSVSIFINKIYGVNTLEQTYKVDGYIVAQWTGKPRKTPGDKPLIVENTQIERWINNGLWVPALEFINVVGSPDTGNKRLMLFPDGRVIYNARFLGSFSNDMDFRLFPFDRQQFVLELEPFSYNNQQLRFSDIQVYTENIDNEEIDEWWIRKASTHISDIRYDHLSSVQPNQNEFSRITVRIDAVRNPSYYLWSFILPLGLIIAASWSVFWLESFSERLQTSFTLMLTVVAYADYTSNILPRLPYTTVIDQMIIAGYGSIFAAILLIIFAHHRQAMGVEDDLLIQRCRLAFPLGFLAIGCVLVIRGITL
Kind of assay: GABA activation of F16′D ELIC, two-electrode voltage clamp in Xenopus oocytes. The format is cell-based, Erwinia chrysanthemii. As to conditions: F16′D ELIC; GABA concentration–response.

Another assay concerns the target T15, F16′A ELIC (Dickeya chrysanthemi, UniProt P0C7B7, F246A).
T15 construct: expressed in transfected cells; host or cells: Xenopus laevis oocytes (cRNA injection)
Kind of assay: GABA activation of F16′A ELIC, two-electrode voltage clamp in Xenopus oocytes. It counts as cell-based, Erwinia chrysanthemii. As to conditions: F16′A ELIC; GABA concentration–response. The method, then: as §1, §4, §5

Assay [3] deals with T1, wild type ELIC. Kind of assay: GABA activation of wild-type ELIC, two-electrode voltage clamp in Xenopus oocytes. The format is cell-based, Erwinia chrysanthemii. On the procedure: as §1, §2, §3
Analysis and curve fitting were performed using Prism version 4.03 (GraphPad Software, San Diego, CA). […]

The subject of another assay is F16′A mutant ELIC. As to conditions: F16′A mutant vs wild type; as previously shown; cited from earlier work.

pEC50, pIC50: −log10 of the molar value. Where two headings read alike, the source gives them in different places.

As a reminder, the pIC50 is the IC50 on a negative log10 scale, so that one unit is a factor of ten. In general, pEC50 refers to −log10 of the EC50, conventionally taken in molar units.

T1 sequence (P0C7B7 whole entry): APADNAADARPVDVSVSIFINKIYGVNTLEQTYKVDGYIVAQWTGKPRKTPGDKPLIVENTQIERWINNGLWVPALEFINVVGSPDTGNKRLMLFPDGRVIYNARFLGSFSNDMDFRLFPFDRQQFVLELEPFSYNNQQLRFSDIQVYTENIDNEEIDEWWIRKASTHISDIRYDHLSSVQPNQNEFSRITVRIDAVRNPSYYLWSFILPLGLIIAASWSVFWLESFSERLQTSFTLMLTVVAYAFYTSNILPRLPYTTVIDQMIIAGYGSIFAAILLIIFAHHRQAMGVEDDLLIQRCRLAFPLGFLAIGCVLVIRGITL
T7 sequence (P0C7B7 whole entry F246L): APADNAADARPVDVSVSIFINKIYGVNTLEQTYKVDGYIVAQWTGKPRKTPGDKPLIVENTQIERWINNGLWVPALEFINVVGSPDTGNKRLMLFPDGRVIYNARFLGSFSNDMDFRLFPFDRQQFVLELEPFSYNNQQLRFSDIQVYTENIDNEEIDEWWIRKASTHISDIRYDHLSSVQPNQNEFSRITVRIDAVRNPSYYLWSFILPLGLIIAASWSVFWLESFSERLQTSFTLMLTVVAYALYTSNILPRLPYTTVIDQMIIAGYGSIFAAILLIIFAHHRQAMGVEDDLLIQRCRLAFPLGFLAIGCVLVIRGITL
T12 sequence (P0C7B7 whole entry T236S): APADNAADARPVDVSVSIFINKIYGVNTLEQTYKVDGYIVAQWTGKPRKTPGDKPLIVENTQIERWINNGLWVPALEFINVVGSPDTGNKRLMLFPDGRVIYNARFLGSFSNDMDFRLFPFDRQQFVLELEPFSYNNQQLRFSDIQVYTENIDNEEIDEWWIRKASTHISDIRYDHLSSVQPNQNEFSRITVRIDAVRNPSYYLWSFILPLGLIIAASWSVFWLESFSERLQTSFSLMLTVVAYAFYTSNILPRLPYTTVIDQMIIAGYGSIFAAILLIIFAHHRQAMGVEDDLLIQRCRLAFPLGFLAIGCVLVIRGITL
T10 sequence (P0C7B7 whole entry F246Q): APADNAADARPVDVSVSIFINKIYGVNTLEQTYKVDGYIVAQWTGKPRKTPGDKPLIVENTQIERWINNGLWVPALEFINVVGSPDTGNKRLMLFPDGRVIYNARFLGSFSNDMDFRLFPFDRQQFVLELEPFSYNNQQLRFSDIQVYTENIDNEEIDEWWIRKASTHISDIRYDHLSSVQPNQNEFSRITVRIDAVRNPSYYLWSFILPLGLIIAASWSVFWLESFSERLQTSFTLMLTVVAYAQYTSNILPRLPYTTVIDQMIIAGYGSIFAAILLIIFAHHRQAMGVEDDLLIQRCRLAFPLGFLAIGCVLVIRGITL
T3 sequence (P0C7B7 whole entry F246W): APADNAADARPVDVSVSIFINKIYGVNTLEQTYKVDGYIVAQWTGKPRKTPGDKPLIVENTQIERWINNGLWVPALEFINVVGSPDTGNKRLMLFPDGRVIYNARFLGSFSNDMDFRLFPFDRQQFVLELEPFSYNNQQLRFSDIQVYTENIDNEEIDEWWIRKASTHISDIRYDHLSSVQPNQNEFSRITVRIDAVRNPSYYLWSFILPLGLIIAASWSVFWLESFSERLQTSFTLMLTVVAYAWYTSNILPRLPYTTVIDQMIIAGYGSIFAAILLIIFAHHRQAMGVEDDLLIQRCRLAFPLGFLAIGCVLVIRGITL
T15 sequence (P0C7B7 whole entry F246A): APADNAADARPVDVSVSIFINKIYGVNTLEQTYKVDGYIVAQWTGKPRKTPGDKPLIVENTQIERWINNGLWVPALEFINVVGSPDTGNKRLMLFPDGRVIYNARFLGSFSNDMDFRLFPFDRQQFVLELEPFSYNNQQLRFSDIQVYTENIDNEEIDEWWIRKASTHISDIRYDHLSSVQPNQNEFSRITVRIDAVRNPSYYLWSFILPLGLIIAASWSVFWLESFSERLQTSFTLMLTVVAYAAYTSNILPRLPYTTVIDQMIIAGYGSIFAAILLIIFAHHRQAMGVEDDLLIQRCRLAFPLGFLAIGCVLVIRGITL
T6 sequence (P0C7B7 whole entry F246S): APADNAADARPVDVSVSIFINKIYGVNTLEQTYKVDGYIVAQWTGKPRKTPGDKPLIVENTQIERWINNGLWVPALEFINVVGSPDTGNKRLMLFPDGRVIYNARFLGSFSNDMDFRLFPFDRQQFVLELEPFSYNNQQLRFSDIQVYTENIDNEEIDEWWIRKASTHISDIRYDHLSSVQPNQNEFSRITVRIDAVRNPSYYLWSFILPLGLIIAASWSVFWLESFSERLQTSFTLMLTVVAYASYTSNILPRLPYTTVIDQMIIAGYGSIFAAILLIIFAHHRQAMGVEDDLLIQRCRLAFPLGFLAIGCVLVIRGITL

As for `CCCC(C(=O)OCCN(CC)CC)(c1ccccc1)c1ccccc1` [proadifen], the figures for the pIC50 on wild type ELIC [1] and on wild type ELIC [2] were 5.10 and 5.09, respectively.
Take `NCCCC(=O)O` [GABA, γ-aminobutyric acid]: the nH is reported as 2.1 ± 0.1 on T6′A ELIC; 3.6 ± 0.5 on F16′W ELIC; 2.1 ± 0.3 at F16′Y ELIC; 2.2 ± 0.7 at F16′S/T6′S ELIC; 2.5 ± 0.6 at F16′S ELIC; 1.6 ± 0.2 on F16′L ELIC (F16′L ELIC, GABA concentration–response). For the same molecule, the nH on F16′E ELIC (F16′E ELIC, GABA concentration–response) came to 1.3 ± 0.2; at F16′Q ELIC, 2.3 ± 0.6; at Q2′N ELIC it was 2.6 ± 1.3; on T6′S ELIC it was 2.7 ± 0.3; on F16′T ELIC it was 1.8 ± 0.3; on F16′D ELIC, 2.5 ± 0.3. At F16′A ELIC, this molecule displayed a nH of 3.0 ± 0.5. In addition, the “fold change in EC50 compared to wild type” value at F16′L ELIC (F16′L ELIC vs wild type) was 32 fold. Further, at F16′E ELIC (F16′E ELIC vs wild type), the “fold increase in EC50 compared to wild type” value came to 16 fold. The “response to application of 100 mM GABA” value at Q2′A ELIC is “did not respond”. Moreover, on wild type ELIC [3] (GABA concentration–response), the “nH (Hill slope)” value amounted to 2.5 ± 0.7. Besides, at wild type ELIC [3] (oocytes clamped at −60 mV, mean ± SEM, read-out: GABA pEC50 (converted)), the EC50 was 1660 µM. Also, on wild type ELIC [3] (read-out: GABA EC50), the negative-log EC50 (pEC50) is 2.80.
As for `NCCS` [cysteamine], the “fold change in cysteamine EC50” value with F16′A mutant ELIC is < 10 fold.

These data come from publication PMC4312132, “Phenylalanine in the Pore of the Erwinia Ligand-Gated Ion Channel Modulates Picrotoxinin Potency but Not Receptor Function” (Biochemistry, 2014).
